Test results from patent publication US12172972B1, “3-(3-bromophenyl)-5-((2-isopropyl-5-methylphenoxy)methyl)-1,2,4-oxadiazole as an anti-cancer and antimicrobial compound” (KING FAISAL UNIVERSITY, priority 2023, dated 2024).

Key:
Assay type in all cases: cell-based
[1] = system: human osteosarcoma cells (MG-63); assay: cytotoxicity by SRB assay; details: MG-63 cells, 0.01 μM to 100 μM, 72 h
Excerpt: (§1) The anticancer activity of the described synthesized compounds against highly aggressive androgen-independent metastatic human prostate cancer cells (PC3) and osteosarcoma (MG-63) cells. The human prostate cancer cells (PC3) and human osteosarcoma cells (MG-63) were obtained from Nawah Scientific Inc. (Mokatam, Cairo, Egypt) and cultured in DMEM (Dulbecco's modified eagle's medium), Gibco, USA, supplemented with fetal bovine serum (FBS) at a concentration of 10% and 100 U/mL of penicillin and streptomycin (PS). The Cells were incubated at 37° C. in a humidified environment that contained 5% CO2.
(§2) Cells were seeded in 96-well plates as aliquots of 100 μL cell suspension and incubated in a complete media for 24 h, afterward, cells were treated with 3-(3-bromophenyl)-5-((2-isopropyl-5-methylphenoxy)methyl)-1,2,4-oxadiazole at diverse concentrations ranging from 0.01 μM to 100 μM for 72 h. Then, cells were fixed at 4° C. for one hour with 150 μL of 10% trichloroacetic acid (TCA). […] Then, 150 μL of Tris pH 10.5 (10 mM) was added, and the absorbance was measured at 540 nm using a BMG LABTECH®-FLUOstar Omega microplate reader (Ortenberg, Germany). Half maximal inhibitory concentrations (IC50) values were calculated for each experiment using GraphPad Prism 6 software. […]
(§3) The inhibition was calculated using the following equation: Inhibition %=100−Average Viability

[2] = system: human prostate cancer cells (PC3); assay: cytotoxicity by SRB assay; details: 0.01 μM to 100 μM, 72 h
Excerpt: as §1, §2, §3

[3] = system: Aspergillus flavus; assay: agar plate disc-diffusion, inhibition zone
Procedure: (§4) The agar plate disc-diffusion method was applied. […] The discs were then placed onto the surface of agar plates (nutrient agar for bacteria and Sabouraud's dextrose agar for fungi) seeded with the test organism. Each plate contained 15 mL of the agar medium, previously seeded with 0.2 mL of the broth culture of each organism pregrown for 18 hours. The plates were incubated at 37° C. for 48 h, and 72 h for fungi. The inhibition zones were measured in mm. Discs impregnated with DMSO were used as a control, and its inhibition zone was subtracted from the tested compound actual inhibition zone.

[4] = system: Bacillus cereus; assay: agar plate disc-diffusion, inhibition zone
Procedure: as §4

[5] = system: Chrysosporium keratinophilum; assay: agar plate disc-diffusion, inhibition zone
Procedure: as §4

[6] = system: Escherichia coli; assay: agar plate disc-diffusion, inhibition zone
Procedure: as §4

[7] = system: Pseudomonas aeruginosa; assay: agar plate disc-diffusion, inhibition zone
Procedure: as §4

[8] = system: Staphylococcus aureus; assay: agar plate disc-diffusion, inhibition zone
Procedure: as §4

[9] = system: different microbes; assay: antimicrobial activity, agar plate disc-diffusion (overall statement); details: against different microbes
Procedure: The agar plate disc-diffusion method was applied. Sterilized filter papers (6 mm in diameter) were wetted with 10 μL of a solution of 3-(3-bromophenyl)-5-((2-isopropyl-5-methylphenoxy)methyl)-1,2,4-oxadiazole (3) to be tested, containing 10 mg/mL in DMSO, and the discs were allowed to air dry. The discs were then placed onto the surface of agar plates (nutrient agar for bacteria and Sabouraud's dextrose agar for fungi) seeded with the test organism. Each plate contained 15 mL of the agar medium, previously seeded with 0.2 mL of the broth culture of each organism pregrown for 18 hours. The plates were incubated at 37° C. for 48 h, and 72 h for fungi. The inhibition zones were measured in mm. Discs impregnated with DMSO were used as a control, and its inhibition zone was subtracted from the tested compound actual inhibition zone.

[10] = A = concentration of comp. = 10,000 μL
[11] = C = concentration of comp. = 50,000 μL

SMILES	inhibition zone [3, 10] [mm]	inhibition zone ([3]; B =) [mm]	inhibition zone [3, 11] [mm]	inhibition zone [4, 10] [mm]	inhibition zone ([4]; B =) [mm]	inhibition zone [4, 11] [mm]	inhibition zone [5, 10] [mm]	inhibition zone ([5]; B = concentration of comp.) [mm]	inhibition zone [5, 11] [mm]	inhibition zone [6, 10] [mm]	inhibition zone ([6]; B =) [mm]	inhibition zone [6, 11] [mm]	inhibition zone [7, 10] [mm]	inhibition zone ([7]; B =) [mm]	inhibition zone [7, 11] [mm]	inhibition zone [8, 10] [mm]	inhibition zone ([8]; B = concentration of comp.) [mm]	inhibition zone [8, 11] [mm]	further results
Cc1ccc(C(C)C)c(OCc2nc(-c3cccc(Br)c3)no2)c1 [3-(3-bromophenyl)-5-((2-isopropyl-5-methylphenoxy)methyl)-1,2,4-oxadiazole]																			antiproliferative activities [1]: excellent antiproliferative activities; antiproliferative activities [2]: excellent antiproliferative activities
O=C(O)c1cn(C2CC2)c2cc(N3CCNCC3)c(F)cc2c1=O [Cip., ciprofloxacin, reference compound]	29	30	42	29	30	42	29	30	53	30	39	60	29	30	53	43	44	53	
Cc1ccc(C(C)C)c(OCc2nc(-c3cccc(Br)c3)no2)c1 [Compound 3, 3-(3-bromophenyl)-5-((2-isopropyl-5-methylphenoxy)methyl)-1,2,4-oxadiazole]	20	24	32	27	29	40	25	28	47	28	36	52	26	28	40	12	16	19	antimicrobial activities [9]: excellent antimicrobial activities
